“And” between values parts separate entries of the source, which are not always exact repeats. Equal values may be shown once.
What was measured:
[1] = molecular target: T1, cytochrome P450 2D6 (Homo sapiens, UniProt P10635); experiment: CYP inhibition in human liver microsomes; type: in vitro ADME; conditions: 10 µM
T1 construct: Corning Cat # 452117); tissue Corning 452117; host or cells: human liver microsomes
Protocol: (§1) This study was conducted at Wuxi (http://www.wuxi.com/). The inhibitory effects of CM-444 and CM-1758 on five human cytochrome P450s (1A2, 2C9, 2C19, 2D6 and 3A4) were evaluated in human liver microsomes. Test compounds (10 µM final concentration) or control compounds (α-naphthoflavone, sulfaphenazole, (+)-N-3-benzylnirvanol, quinidine, ketoconazole; 3-µM final concentration), and the corresponding substrates for each P450 isoform (1A2: phenacetin, 10-µM final concentration; 2C9: diclofenac, 5-µM final concentration; 2C19: S-mephenytoin, 30-µM final concentration, 2D6: dextromethorphan, 5-µM final concentration; 3A4: midazolam, 2-µM final concentration) were incubated with human liver microsomes (0.2-mg/mL final concentration; Corning Cat # 452117) and NADPH cofactor (1-mM final concentration, Chem-impex Cat # 00616) for 10 min at 37 °C. The reaction was terminated by adding 400 µL of cold stop solution (200 ng/mL tolbutamide and labetalol in acetonitrile), and the samples were centrifuged at 1520 g for 20 min. Next, 200-μL aliquots of supernatants were diluted with 100 μL of ultra-pure water and shaken for 10 min. The samples were analyzed by LC-MS/MS using an analyte/internal standard peak area ratio. Test compounds and positive controls were tested in duplicate. The percentage of inhibition was calculated as the ratio of substrate metabolite detected in treated and non-treated wells.

[2] = molecular target: T2, cytochrome P450 1A2 (Homo sapiens, UniProt P05177); experiment: CYP inhibition in human liver microsomes; type: in vitro ADME; conditions: 10 µM
T2 construct: Corning Cat # 452117); tissue Corning 452117; host or cells: human liver microsomes
Protocol: as §1

[3] = molecular target: T3, cytochrome P450 2C9 (Homo sapiens, UniProt P11712); experiment: CYP inhibition in human liver microsomes; type: in vitro ADME; conditions: 10 µM
T3 construct: Corning Cat # 452117); tissue Corning 452117; host or cells: human liver microsomes
Protocol: as §1

[4] = molecular target: T4, cytochrome P450 3A4 (Homo sapiens, UniProt P08684); experiment: CYP inhibition in human liver microsomes; type: in vitro ADME; conditions: 10 µM
T4 construct: Corning Cat # 452117); tissue Corning 452117; host or cells: human liver microsomes
Protocol: as §1

[5] = molecular target: T5, cytochrome P450 2C19 (Homo sapiens, UniProt P33261); experiment: CYP inhibition in human liver microsomes; type: in vitro ADME; conditions: 10 µM
T5 construct: Corning Cat # 452117); tissue Corning 452117; host or cells: human liver microsomes
Protocol: as §1

[6] = system: Rag2-/-γc-/- mice; experiment: Toxicity assay: hematological and liver parameters, liver histology; type: in vivo, mouse; conditions: for ALT (Counts (U/L)) / AST (Counts (U/L)) / Bilirubin (Counts (mg/dl)) / HDL (Counts (mmol/l)) / LCLC3 (Counts (mmol/l)) / UREA (Counts (mg/dl)) / Hematocrit (Counts (%)) / Hemoglobin (Counts (g/dl)) / PLT (Counts (K/O)) / RBC (Counts (K/O)) / WBC (Counts (K/O)): healthy Rag2-/-γc-/- mice, individual mice, 10 mg/kg; for ALT (Counts (U/L)) / AST (Counts (U/L)) / Bilirubin (Counts (mg/dl)) / HDL (Counts (mmol/l)) / LCLC3 (Counts (mmol/l)) / UREA (Counts (mg/dl)): 10 mg/kg i.p. daily for 3 weeks then 7-day washout; for Hematocrit (Counts (%)) / Hemoglobin (Counts (g/dl)) / PLT (Counts (K/O)) / RBC (Counts (K/O)) / WBC (Counts (K/O)): 10 mg/kg i.p. daily for 3 weeks
Protocol: After treating Rag2^−/−γc^−/− mice with i.p. […] Hematological and liver parameters were measured.
Hematological parameters, including white blood cells, red blood cells, platelet count, hemoglobin and hematocrit, were measured on a Hemavet Hematology Analyzer (Drew Scientific). Liver enzymes (albumin, alkaline phosphatase, aspartate transaminase, alanine transaminase), cholesterol, bilirubin, urea and bile acid levels were analyzed from mice serum using a C311 Cobas Analyzer (Roche Diagnostics).
Mice livers were fixed in paraformaldehyde at 4% for 6–8 h, washed twice with saline solution and stored in 70% ethanol. Samples were included in paraffin, and 3-µm serial sections were cut, deparaffinated, and stained with hematoxylin–eosin.

T5 sequence (P33261 whole entry): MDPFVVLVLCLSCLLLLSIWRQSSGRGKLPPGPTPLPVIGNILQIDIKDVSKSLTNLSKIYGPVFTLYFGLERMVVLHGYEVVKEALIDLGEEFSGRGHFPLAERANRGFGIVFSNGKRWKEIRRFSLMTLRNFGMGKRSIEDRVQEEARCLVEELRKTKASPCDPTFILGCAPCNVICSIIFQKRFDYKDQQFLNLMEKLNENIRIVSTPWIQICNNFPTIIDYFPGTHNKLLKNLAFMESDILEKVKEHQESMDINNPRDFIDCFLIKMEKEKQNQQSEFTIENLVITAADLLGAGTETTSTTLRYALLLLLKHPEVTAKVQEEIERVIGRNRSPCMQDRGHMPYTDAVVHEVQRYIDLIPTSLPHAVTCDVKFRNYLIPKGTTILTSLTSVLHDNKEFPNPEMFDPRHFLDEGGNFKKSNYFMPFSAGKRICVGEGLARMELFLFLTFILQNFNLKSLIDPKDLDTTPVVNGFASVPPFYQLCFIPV
T4 sequence (P08684 whole entry): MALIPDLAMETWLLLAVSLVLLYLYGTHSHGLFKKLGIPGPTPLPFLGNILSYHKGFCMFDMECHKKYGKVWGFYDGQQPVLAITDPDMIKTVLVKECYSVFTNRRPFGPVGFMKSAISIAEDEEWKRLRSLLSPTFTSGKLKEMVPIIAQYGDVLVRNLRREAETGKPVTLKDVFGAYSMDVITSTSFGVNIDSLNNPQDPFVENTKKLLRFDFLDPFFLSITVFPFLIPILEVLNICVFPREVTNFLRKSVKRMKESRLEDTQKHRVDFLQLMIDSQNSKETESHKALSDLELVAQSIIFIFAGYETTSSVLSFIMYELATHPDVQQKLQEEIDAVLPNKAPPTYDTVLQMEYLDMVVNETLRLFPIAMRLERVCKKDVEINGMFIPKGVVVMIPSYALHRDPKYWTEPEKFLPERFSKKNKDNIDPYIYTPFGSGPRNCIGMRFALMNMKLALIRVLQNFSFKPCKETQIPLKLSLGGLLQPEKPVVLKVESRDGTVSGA
T2 sequence (P05177 whole entry): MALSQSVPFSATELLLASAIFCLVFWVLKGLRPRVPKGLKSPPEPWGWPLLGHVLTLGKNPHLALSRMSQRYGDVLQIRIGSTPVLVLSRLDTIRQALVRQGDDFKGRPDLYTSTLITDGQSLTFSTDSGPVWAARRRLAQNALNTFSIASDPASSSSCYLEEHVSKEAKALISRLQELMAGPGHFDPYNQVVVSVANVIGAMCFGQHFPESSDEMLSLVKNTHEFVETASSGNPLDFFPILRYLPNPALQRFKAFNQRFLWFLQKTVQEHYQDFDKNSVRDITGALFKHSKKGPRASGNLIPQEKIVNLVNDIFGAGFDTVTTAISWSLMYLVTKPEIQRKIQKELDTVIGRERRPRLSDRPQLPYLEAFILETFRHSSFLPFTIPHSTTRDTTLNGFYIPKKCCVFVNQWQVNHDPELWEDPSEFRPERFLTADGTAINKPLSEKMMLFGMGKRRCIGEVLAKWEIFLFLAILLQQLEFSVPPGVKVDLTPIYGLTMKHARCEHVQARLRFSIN
T3 sequence (P11712 whole entry): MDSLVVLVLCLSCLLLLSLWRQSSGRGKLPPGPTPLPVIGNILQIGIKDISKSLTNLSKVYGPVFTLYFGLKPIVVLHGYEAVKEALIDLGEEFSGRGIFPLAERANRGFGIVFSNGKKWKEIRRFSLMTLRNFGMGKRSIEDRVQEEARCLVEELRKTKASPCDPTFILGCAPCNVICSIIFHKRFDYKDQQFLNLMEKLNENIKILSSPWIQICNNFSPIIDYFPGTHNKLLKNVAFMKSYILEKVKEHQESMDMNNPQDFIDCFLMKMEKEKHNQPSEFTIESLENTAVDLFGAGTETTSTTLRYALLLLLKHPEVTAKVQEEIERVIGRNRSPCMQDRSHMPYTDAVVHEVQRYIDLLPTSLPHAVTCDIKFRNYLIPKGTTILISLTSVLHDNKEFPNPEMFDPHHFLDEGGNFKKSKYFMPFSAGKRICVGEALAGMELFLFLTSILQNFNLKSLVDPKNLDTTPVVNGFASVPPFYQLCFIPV
T1 sequence (P10635 whole entry): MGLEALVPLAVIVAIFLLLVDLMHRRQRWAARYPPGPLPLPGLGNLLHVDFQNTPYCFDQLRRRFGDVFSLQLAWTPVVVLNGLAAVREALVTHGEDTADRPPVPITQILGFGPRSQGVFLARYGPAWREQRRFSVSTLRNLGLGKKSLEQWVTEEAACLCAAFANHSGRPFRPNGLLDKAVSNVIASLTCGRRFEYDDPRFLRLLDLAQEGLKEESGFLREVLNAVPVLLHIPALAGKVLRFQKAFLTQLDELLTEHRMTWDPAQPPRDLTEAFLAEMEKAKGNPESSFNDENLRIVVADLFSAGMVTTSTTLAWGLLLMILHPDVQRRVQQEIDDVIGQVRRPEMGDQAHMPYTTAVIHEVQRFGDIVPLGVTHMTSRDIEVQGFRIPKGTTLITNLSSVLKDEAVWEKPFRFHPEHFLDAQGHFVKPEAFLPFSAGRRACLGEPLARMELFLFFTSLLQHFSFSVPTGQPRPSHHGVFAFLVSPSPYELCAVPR

COc1cc2nc(-c3cc(C)oc3C)cc(NCC3CCN(c4ncc(C(=O)NO)cn4)CC3)c2cc1OC [CM-1758, 2-[4-[[[2-(2,5-dimethyl-3-furyl)-6,7-dimethoxy-4-quinolyl]amino]methyl] -1-piperidyl]pyrimidine-5-carbohydroxamic acid]
P450S Inhibition (2D6) [1]: 13.1%
P450S Inhibition (1A2) [2]: 55.4%
P450S Inhibition (2C9) [3]: 12.2%
P450S Inhibition (3A4) [4]: 46.9%
P450S Inhibition (2C19) [5]: 23.7%
tolerability ([6]; 10 mg/kg i.p. daily over 3 weeks, 1-week washout, Rag2-/-γc-/- mice): well tolerated
ALT (Counts (U/L)) ([6]; Week 3): 17 U/L and 4.5 U/L and 5.5 U/L and 9 U/L
AST (Counts (U/L)) ([6]; Week 3): 148.5 U/L and 43 U/L and 38.5 U/L and 74 U/L
Bilirubin (Counts (mg/dl)) ([6]; Week 3): 0 mg/dl (2×) and 0.05 mg/dl (2×)
HDL (Counts (mmol/l)) ([6]; Week 3): 3.2 mmol/L and 2.05 mmol/L and 0.6 mmol/L and 2.55 mmol/L
LCLC3 (Counts (mmol/l)) ([6]; Week 3): 0.2 mmol/l (2×) and 0.1 mmol/l (2×)
UREA (Counts (mg/dl)) ([6]; Week 3): 20.7 mg/dL and 26.4 mg/dL and 33.1 mg/dL and 24.1 mg/dL
ALT (Counts (U/L)) ([6]; Week 4): 14.1 U/L and 27 U/L and 21.9 U/L and 7.5 U/L
AST (Counts (U/L)) ([6]; Week 4): 46.8 U/L and 244.8 U/L and 155.7 U/L and 62.1 U/L
Bilirubin (Counts (mg/dl)) ([6]; Week 4): 0 mg/dL and 0.06 mg/dL and 0.12 mg/dL and 0.03 mg/dL
HDL (Counts (mmol/l)) ([6]; Week 4): 2.61 mmol/L and 2.43 mmol/L and 2.31 mmol/L and 2.37 mmol/L
LCLC3 (Counts (mmol/l)) ([6]; Week 4): 0.21 mmol/l (3×) and 0.27 mmol/l
UREA (Counts (mg/dl)) ([6]; Week 4): 26.61 mg/dl and 26.58 mg/dl (2×) and 31.89 mg/dl
Hematocrit (Counts (%)) ([6]; 7d Washout): 51% and 54.2% and 45.9% and 52.8%
Hemoglobin (Counts (g/dl)) ([6]; 7d Washout): 17.7 g/dL and 17.6 g/dL and 16.1 g/dL and 17.4 g/dL
PLT (Counts (K/O)) ([6]; 7d Washout): 1572 K/O and 1571 K/O and 1050 K/O and 1405 K/O
RBC (Counts (K/O)) ([6]; 7d Washout): 9.8 K/O and 10.2 K/O and 8.86 K/O and 10.25 K/O
WBC (Counts (K/O)) ([6]; 7d Washout): 1.4 K/O and 1.52 K/O and 3.74 K/O and 2.44 K/O
Hematocrit (Counts (%)) ([6]; Week 1): 48.1% and 47% and 47.7% and 46.6%
Hemoglobin (Counts (g/dl)) ([6]; Week 1): 17.8 g/dL and 17.5 g/dL and 18 g/dL and 17.7 g/dL
PLT (Counts (K/O)) ([6]; Week 1): 866 K/O and 806 K/O and 880 K/O and 983 K/O
RBC (Counts (K/O)) ([6]; Week 1): 9.36 K/O and 9.79 K/O and 10.18 K/O (2×)
WBC (Counts (K/O)) ([6]; Week 1): 1.68 K/O and 1.52 K/O and 1.6 K/O and 1.16 K/O
Hematocrit (Counts (%)) ([6]; Week 2): 51.3% and 48.5% and 45.7% and 50.4%
Hemoglobin (Counts (g/dl)) ([6]; Week 2): 18.2 g/dL and 18 g/dL and 17.2 g/dL and 17.7 g/dL
PLT (Counts (K/O)) ([6]; Week 2): 1496 K/O and 1628 K/O and 1531 K/O and 1908 K/O
RBC (Counts (K/O)) ([6]; Week 2): 10.07 K/O and 9.97 K/O and 9.38 K/O and 10.01 K/O
WBC (Counts (K/O)) ([6]; Week 2): 10.02 K/O and 4.3 K/O and 5.26 K/O and 5.18 K/O
Hematocrit (Counts (%)) ([6]; Week 3): 47.2% and 36.5% and 46.9% and 44.2%
Hemoglobin (Counts (g/dl)) ([6]; Week 3): 17.4 g/dL and 13.4 g/dL and 17.3 g/dL and 16.8 g/dL
PLT (Counts (K/O)) ([6]; Week 3): 870 K/O and 786 K/O and 1040 K/O and 1436 K/O
RBC (Counts (K/O)) ([6]; Week 3): 9.53 K/O and 7.63 K/O and 9.68 K/O and 9.71 K/O
WBC (Counts (K/O)) ([6]; Week 3): 3.3 K/O and 2.28 K/O and 4.16 K/O and 1.16 K/O

From publication PMC11219871, “Epigenetic-based differentiation therapy for Acute Myeloid Leukemia” (Nature Communications, 2024)
